Results reported in the kinase profiling compilation of Christmann-Franck et al. (2016).

What was measured:
Experiment in all cases: KINOMEscan competition binding
Details in all cases: compound 10.0 µM
STK16 (human) = STK16 (human) (UniProt O75716)
FGFR2 (human) = FGFR2 (human) (UniProt P21802)
GSK3B (human) = GSK3B (human) (UniProt P49841)
BMPR1A (human) = BMPR1A (human) (UniProt P36894)
CDK14 (human) = CDK14 (human) (UniProt O94921)
BRSK1 (human) = BRSK1 (human) (UniProt Q8TDC3)
NEK2 (human) = NEK2 (human) (UniProt P51955)
FLT3 (human) = FLT3 (human) (UniProt P36888)
[1] = molecular target: JAK1 JH1 catalytic (human) (UniProt P23458)
LIMK1 (human) = LIMK1 (human) (UniProt P53667)
PRKD3 (human) = PRKD3 (human) (UniProt O94806)
PLK1 (human) = PLK1 (human) (UniProt P53350)
MAP3K9 (human) = MAP3K9 (human) (UniProt P80192)
STK4 (human) = STK4 (human) (UniProt Q13043)
PIK3CB (human) = PIK3CB (human) (UniProt P42338)
CAMK1D (human) = CAMK1D (human) (UniProt Q8IU85)
CDK7 (human) = CDK7 (human) (UniProt P50613)
MAP4K1 (human) = MAP4K1 (human) (UniProt Q92918)
RPS6KA5 KD1 (human) = RPS6KA5 KD1 (human) (UniProt O75582)
CDK15 (human) = CDK15 (human) (UniProt Q96Q40)
BMPR2 (human) = BMPR2 (human) (UniProt Q13873)
MAP3K7 (human) = MAP3K7 (human) (UniProt O43318)
LATS1 (human) = LATS1 (human) (UniProt O95835)
MAPK9 (human) = MAPK9 (human) (UniProt P45984)
DCLK1 (human) = DCLK1 (human) (UniProt O15075)
RPS6KA3 KD1 (human) = RPS6KA3 KD1 (human) (UniProt P51812)
STK11 (human) = STK11 (human) (UniProt Q15831)
CDK5 (human) = CDK5 (human) (UniProt Q00535)
BRSK2 (human) = BRSK2 (human) (UniProt Q8IWQ3)
LYN (human) = LYN (human) (UniProt P07948)
NTRK3 (human) = NTRK3 (human) (UniProt Q16288)
CDK9 (human) = CDK9 (human) (UniProt P50750)
TSSK1B (human) = TSSK1B (human) (UniProt Q9BXA7)
BMPR1B (human) = BMPR1B (human) (UniProt O00238)
[2] = molecular target: TYK2 JH2 pseudokinase (human) (UniProt P29597)
BLK (human) = BLK (human) (UniProt P51451)
MARK3 (human) = MARK3 (human) (UniProt P27448)
IKBKE (human) = IKBKE (human) (UniProt Q14164)
[3] = system: FLT3 (human), P36888 [ITD]
YES1 (human) = YES1 (human) (UniProt P07947)

CDK15 (human), sequence (Q96Q40 whole entry, looked up): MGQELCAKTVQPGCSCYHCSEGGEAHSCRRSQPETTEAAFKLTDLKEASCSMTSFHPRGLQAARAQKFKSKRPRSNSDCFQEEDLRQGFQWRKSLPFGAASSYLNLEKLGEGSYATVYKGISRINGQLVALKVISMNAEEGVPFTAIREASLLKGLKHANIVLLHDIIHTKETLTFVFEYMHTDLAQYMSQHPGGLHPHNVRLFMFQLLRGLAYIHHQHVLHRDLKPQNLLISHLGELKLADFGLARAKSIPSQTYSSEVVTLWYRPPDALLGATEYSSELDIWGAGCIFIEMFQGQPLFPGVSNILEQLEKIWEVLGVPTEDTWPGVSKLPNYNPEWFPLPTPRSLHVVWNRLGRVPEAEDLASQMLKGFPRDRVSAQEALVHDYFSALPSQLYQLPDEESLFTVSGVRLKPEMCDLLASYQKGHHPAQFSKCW
NEK2 (human), sequence (P51955 whole entry, looked up): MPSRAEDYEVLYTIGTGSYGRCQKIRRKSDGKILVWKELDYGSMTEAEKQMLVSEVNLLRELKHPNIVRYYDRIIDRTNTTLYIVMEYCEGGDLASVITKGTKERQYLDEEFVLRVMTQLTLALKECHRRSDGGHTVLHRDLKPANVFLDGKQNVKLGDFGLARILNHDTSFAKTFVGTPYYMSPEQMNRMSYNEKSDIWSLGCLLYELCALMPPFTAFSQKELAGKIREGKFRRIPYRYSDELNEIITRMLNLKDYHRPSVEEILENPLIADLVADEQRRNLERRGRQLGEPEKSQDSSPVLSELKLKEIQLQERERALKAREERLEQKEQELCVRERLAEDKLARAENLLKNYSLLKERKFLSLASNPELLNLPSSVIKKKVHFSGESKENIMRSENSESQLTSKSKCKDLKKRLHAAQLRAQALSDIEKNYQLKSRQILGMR
MAP4K1 (human), sequence (Q92918 whole entry, looked up): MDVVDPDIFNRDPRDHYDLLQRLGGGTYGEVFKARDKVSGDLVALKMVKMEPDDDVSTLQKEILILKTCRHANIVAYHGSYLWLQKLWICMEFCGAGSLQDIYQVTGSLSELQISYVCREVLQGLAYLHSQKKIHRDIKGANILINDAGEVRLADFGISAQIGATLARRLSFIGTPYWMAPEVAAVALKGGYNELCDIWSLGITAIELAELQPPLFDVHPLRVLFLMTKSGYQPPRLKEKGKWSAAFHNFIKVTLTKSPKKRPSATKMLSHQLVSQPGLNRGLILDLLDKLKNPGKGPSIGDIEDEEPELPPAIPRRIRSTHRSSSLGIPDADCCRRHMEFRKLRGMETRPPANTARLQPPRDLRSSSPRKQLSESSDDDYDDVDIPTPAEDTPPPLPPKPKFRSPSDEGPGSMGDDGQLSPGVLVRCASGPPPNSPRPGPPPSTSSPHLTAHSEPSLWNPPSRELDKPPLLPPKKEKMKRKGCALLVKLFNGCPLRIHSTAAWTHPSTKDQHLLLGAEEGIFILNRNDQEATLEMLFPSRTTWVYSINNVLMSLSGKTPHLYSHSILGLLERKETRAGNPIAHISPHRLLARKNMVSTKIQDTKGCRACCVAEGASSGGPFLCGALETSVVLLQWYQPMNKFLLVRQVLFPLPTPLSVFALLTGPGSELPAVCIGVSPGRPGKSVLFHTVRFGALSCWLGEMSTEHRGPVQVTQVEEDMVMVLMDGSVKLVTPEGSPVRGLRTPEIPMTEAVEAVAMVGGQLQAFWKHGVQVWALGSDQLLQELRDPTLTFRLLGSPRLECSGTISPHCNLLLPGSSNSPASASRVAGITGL
CDK5 (human), sequence (Q00535 whole entry, looked up): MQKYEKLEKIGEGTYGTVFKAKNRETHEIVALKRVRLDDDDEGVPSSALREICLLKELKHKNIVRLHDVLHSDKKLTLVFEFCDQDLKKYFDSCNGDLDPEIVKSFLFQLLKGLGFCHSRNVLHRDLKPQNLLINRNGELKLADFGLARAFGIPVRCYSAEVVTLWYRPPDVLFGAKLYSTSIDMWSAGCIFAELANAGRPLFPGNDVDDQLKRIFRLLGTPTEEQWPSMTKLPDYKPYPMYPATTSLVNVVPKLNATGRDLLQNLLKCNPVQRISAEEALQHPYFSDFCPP
JAK1 JH1 catalytic (human), sequence (P23458 whole entry, looked up): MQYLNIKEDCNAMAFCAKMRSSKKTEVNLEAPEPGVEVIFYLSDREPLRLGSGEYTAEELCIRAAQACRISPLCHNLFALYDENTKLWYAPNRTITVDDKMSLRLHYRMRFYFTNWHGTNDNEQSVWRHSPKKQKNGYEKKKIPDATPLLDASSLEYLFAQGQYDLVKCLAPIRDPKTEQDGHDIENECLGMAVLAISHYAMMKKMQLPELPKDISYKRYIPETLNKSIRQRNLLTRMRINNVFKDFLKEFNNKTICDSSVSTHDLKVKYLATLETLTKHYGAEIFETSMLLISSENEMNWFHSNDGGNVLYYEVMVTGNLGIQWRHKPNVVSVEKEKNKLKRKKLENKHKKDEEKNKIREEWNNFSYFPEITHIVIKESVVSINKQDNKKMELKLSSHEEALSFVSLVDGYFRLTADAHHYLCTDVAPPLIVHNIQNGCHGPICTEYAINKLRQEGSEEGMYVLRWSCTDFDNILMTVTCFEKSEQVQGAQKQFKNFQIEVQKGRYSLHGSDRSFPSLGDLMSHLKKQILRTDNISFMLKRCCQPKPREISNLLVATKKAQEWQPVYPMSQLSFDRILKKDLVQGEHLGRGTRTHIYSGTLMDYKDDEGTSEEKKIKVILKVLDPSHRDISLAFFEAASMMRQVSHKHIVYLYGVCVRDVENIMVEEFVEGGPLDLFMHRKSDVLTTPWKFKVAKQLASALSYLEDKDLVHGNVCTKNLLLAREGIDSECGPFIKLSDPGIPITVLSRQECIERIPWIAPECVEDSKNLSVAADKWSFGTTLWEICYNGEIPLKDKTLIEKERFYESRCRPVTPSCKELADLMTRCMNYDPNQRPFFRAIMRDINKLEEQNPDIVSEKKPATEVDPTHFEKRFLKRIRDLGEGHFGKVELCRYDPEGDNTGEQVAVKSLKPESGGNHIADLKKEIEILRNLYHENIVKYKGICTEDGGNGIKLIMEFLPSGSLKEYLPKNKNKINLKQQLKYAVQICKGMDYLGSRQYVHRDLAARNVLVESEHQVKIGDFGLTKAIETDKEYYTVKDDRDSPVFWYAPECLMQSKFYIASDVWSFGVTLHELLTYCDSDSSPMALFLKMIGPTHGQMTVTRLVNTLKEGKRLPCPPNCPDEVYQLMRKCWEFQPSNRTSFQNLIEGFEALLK
LIMK1 (human), sequence (P53667 whole entry, looked up): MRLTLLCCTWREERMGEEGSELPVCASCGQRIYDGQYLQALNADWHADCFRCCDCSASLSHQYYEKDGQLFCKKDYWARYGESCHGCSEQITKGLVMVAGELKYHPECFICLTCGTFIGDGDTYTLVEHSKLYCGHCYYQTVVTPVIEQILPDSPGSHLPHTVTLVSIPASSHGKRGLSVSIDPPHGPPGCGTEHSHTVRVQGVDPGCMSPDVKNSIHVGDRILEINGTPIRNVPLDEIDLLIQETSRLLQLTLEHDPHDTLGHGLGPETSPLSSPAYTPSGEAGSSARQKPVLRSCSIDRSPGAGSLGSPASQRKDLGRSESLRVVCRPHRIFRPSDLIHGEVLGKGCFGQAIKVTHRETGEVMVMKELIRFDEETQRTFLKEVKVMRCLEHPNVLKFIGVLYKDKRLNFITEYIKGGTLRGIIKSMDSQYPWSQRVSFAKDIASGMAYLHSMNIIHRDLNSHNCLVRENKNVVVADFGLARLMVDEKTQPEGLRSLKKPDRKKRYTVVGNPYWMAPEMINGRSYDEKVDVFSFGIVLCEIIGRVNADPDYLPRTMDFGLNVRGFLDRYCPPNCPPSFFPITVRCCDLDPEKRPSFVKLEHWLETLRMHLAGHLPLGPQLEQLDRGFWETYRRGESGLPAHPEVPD
LATS1 (human), sequence (O95835 whole entry, looked up): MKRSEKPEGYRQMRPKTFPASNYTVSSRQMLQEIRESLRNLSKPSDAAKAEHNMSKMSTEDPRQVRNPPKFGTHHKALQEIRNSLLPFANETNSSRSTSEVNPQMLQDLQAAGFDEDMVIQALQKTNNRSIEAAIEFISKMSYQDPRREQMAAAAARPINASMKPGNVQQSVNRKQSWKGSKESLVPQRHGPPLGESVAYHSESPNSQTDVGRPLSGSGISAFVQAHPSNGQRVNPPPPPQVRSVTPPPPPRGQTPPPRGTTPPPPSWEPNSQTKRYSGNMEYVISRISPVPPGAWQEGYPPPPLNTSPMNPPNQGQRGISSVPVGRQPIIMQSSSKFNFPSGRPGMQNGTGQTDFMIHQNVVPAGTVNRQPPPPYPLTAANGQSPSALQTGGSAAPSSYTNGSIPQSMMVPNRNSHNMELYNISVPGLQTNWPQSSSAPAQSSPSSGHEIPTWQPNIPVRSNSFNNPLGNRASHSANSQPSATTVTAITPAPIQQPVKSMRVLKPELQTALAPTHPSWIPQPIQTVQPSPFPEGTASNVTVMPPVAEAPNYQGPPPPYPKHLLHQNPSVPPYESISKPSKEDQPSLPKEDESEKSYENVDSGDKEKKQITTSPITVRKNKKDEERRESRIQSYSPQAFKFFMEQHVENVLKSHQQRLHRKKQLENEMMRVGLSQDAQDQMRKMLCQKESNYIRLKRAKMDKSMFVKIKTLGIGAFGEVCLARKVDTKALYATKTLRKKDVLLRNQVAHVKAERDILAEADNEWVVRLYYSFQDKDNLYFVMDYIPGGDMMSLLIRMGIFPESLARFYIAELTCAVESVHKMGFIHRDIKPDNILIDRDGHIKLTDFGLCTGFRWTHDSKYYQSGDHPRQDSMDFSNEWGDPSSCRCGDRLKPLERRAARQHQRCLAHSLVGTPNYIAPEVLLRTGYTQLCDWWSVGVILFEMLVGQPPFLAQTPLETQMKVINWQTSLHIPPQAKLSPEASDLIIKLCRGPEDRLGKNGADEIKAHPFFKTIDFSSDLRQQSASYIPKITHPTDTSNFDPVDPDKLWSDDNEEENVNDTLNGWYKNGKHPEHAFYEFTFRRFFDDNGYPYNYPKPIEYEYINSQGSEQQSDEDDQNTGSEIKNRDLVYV

Row | SMILES | kinase still bound, per cent of control (STK16 (human)) | kinase still bound, per cent of control (FGFR2 (human)) | kinase still bound, per cent of control (GSK3B (human)) | kinase still bound, per cent of control (BMPR1A (human)) | kinase still bound, per cent of control (CDK14 (human)) | kinase still bound, per cent of control (BRSK1 (human)) | kinase still bound, per cent of control (NEK2 (human)) | kinase still bound, per cent of control (FLT3 (human)) | kinase still bound, per cent of control [1] | kinase still bound, per cent of control (LIMK1 (human)) | kinase still bound, per cent of control (PRKD3 (human)) | kinase still bound, per cent of control (PLK1 (human)) | kinase still bound, per cent of control (MAP3K9 (human)) | kinase still bound, per cent of control (STK4 (human)) | kinase still bound, per cent of control (PIK3CB (human)) | kinase still bound, per cent of control (CAMK1D (human)) | kinase still bound, per cent of control (CDK7 (human)) | kinase still bound, per cent of control (MAP4K1 (human)) | kinase still bound, per cent of control (RPS6KA5 KD1 (human)) | kinase still bound, per cent of control (CDK15 (human)) | other results
1 | OCCCNc1cc(-c2ccnc(Nc3cccc(Cl)c3)n2)ccn1 | 100% | 100% | 100% | 100% | 100% | 100% | 100% | 100% | 100% | 100% | 100% | 100% | 100% | 100% | 100% | 100% | 100% | 100% | 100% | 100% | kinase still bound, per cent of control (BMPR2 (human)): 100%; kinase still bound, per cent of control (MAP3K7 (human)): 100%; kinase still bound, per cent of control (LATS1 (human)): 100%; kinase still bound, per cent of control (MAPK9 (human)): 100%; kinase still bound, per cent of control (DCLK1 (human)): 100%; kinase still bound, per cent of control (RPS6KA3 KD1 (human)): 100%; kinase still bound, per cent of control (STK11 (human)): 100%; kinase still bound, per cent of control (CDK5 (human)): 100%; kinase still bound, per cent of control (BRSK2 (human)): 100%; kinase still bound, per cent of control (LYN (human)): 100%; kinase still bound, per cent of control (NTRK3 (human)): 100%; kinase still bound, per cent of control (CDK9 (human)): 10%; kinase still bound, per cent of control (TSSK1B (human)): 100%; kinase still bound, per cent of control (BMPR1B (human)): 100%; kinase still bound, per cent of control [2]: 100%; kinase still bound, per cent of control (BLK (human)): 100%; kinase still bound, per cent of control (MARK3 (human)): 100%; kinase still bound, per cent of control (IKBKE (human)): 100%; kinase still bound, per cent of control [3]: 100%; kinase still bound, per cent of control (YES1 (human)): 100%
2 | C=CC(=O)Nc1cccc(Nc2nc(N[C@H]3CC[C@H](N(C)C)CC3)nc3c2ncn3C(C)C)c1 | 72% | 62% | 94% | 100% | 98% | 88% | 94% | 2.6% | 88% | 100% | 80% | 21% | 17% | 78% | 100% | 67% | 15% | 74% | 93% | 100% | kinase still bound, per cent of control (BMPR2 (human)): 79%; kinase still bound, per cent of control (MAP3K7 (human)): 21%; kinase still bound, per cent of control (LATS1 (human)): 100%; kinase still bound, per cent of control (MAPK9 (human)): 100%; kinase still bound, per cent of control (DCLK1 (human)): 30%; kinase still bound, per cent of control (RPS6KA3 KD1 (human)): 3.6%; kinase still bound, per cent of control (STK11 (human)): 66%; kinase still bound, per cent of control (CDK5 (human)): 80%; kinase still bound, per cent of control (BRSK2 (human)): 100%; kinase still bound, per cent of control (LYN (human)): 50%; kinase still bound, per cent of control (NTRK3 (human)): 28%; kinase still bound, per cent of control (CDK9 (human)): 100%; kinase still bound, per cent of control (TSSK1B (human)): 97%; kinase still bound, per cent of control (BMPR1B (human)): 31%; kinase still bound, per cent of control [2]: 100%; kinase still bound, per cent of control (BLK (human)): 17%; kinase still bound, per cent of control (MARK3 (human)): 81%; kinase still bound, per cent of control (IKBKE (human)): 95%; kinase still bound, per cent of control [3]: 1%; kinase still bound, per cent of control (YES1 (human)): 23%
3 | Cc1ccc(NC(=O)c2cccc(C(C)(C)C#N)c2)cc1Nc1ccc2ncn(C)c(=O)c2c1 | 83% | 55% | 95% | 100% | 100% | 91% | 100% | 61% | 100% | 100% | 88% | 100% | 94% | 100% | 100% | 100% | 100% | 63% | 100% | 100% | kinase still bound, per cent of control (BMPR2 (human)): 58%; kinase still bound, per cent of control (MAP3K7 (human)): 17%; kinase still bound, per cent of control (LATS1 (human)): 100%; kinase still bound, per cent of control (MAPK9 (human)): 1.8%; kinase still bound, per cent of control (DCLK1 (human)): 97%; kinase still bound, per cent of control (RPS6KA3 KD1 (human)): 90%; kinase still bound, per cent of control (STK11 (human)): 100%; kinase still bound, per cent of control (CDK5 (human)): 100%; kinase still bound, per cent of control (BRSK2 (human)): 100%; kinase still bound, per cent of control (LYN (human)): 0.3%; kinase still bound, per cent of control (NTRK3 (human)): 38%; kinase still bound, per cent of control (CDK9 (human)): 100%; kinase still bound, per cent of control (TSSK1B (human)): 79%; kinase still bound, per cent of control (BMPR1B (human)): 82%; kinase still bound, per cent of control [2]: 100%; kinase still bound, per cent of control (BLK (human)): 1%; kinase still bound, per cent of control (MARK3 (human)): 89%; kinase still bound, per cent of control (IKBKE (human)): 100%; kinase still bound, per cent of control [3]: 78%; kinase still bound, per cent of control (YES1 (human)): 4.6%
